In patent publication US20240083861A1, “HSD17B13 INHIBITORS AND USES THEREOF” (FL2022-001, Inc., priority 2020, published 2024) one finds IC50 data, which are given here for 28 compounds.

Structures are written as SMILES.

This experiment addresses T1, Recombinant human HSD17B13 enzyme (Homo sapiens, UniProt Q7Z5P4).
T1 sequence (Q7Z5P4 20-300): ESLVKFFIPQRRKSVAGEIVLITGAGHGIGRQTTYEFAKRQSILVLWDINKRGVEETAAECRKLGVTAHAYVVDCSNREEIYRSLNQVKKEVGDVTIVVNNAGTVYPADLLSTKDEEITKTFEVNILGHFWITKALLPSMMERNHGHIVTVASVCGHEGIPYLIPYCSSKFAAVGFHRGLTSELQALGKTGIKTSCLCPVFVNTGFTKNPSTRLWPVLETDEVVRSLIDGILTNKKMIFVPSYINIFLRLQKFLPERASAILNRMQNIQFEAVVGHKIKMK
Description: HSD17b13 NAD(P)H-Glo biochemical assay. Conditions: 50 uM estradiol, 1 mM NAD+, NAD(P)H-Glo luminescence; read-out: HSD17β13 IC50. The method, boiled down:
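Luminescent NAD(P)H-Glo read-out, taken after 1 hour at RT, measured cofactor reduction. Substrate and cofactor were estradiol at 50 uM and NAD+ at 1 mM final, reacted with the recombinant human enzyme for 3 hours at 37° C in 20 mM Tris pH7.4, 0.002% Tween-20, 0.02% BSA. Compound was pre-incubated with enzyme for 20 minutes at RT.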
As usually defined, the IC50 is the midpoint of a concentration-inhibition curve. For `Cn1nc(-c2cc(C(F)(F)F)c(F)c(O)c2F)c2cc(F)c(N3CCN(S(C)(=O)=O)CC34CC4)nc21` [Compound 9.104, 2,6-Difluoro-3-(5-fluoro-1-methyl-6-(7-(methylsulfonyl)-4,7-diazaspiro[2.5]octan-4-yl)-1H-pyrazolo[3,4-b]pyridin-3-yl)-5-(trifluoromethyl)phenol], the IC50 is less than 0.1 µM.

With `Cn1nc(-c2cc(C(F)(F)F)c(F)c(O)c2F)c2cnc(N3CCC4(CCC(=O)N4)CC3)nc21` [Compound 18.15, 8-(3-(2,4-Difluoro-3-hydroxy-5-(trifluoromethyl)phenyl)-1-methyl-1H-pyrazolo[3,4-d]pyrimidin-6-yl)-1,8-diazaspiro[4.5]decan-2-one], the IC50 was less than 0.1 µM.

In the case of `Cn1nc(-c2cc(C(F)(F)F)c(F)c(O)c2F)c2cnc(N3CCC3(C)C)nc21` [Compound 9.05, 3-(6-(2,2-Dimethylazetidin-1-yl)-1-methyl-1H-pyrazolo[3,4-d]pyrimidin-3-yl)-2,6-difluoro-5-(trifluoromethyl)phenol], the IC50 fell in the range of 0.1 to 1 µM.

On to `Cn1nc(-c2cc(C(F)(F)F)c(F)c(O)c2F)c2cnc(N3CCC34CCOCC4)nc21` [Compound 18.13, 2,6-Difluoro-3-(1-methy1-6-(7-oxa-1-azaspiro[3.5]nonan-1-y1)-1H-pyrazolo[3,4-d]pyrimidin-3-y1)-5-(trifluoromethyl)phenol], for which the IC50 is less than 0.1 µM.

For the compound `Cn1nc(-c2cc(C(F)(F)F)c(F)c(O)c2F)c2cnc(N3CCOC4(CCC4)C3)cc21` [Compound 9.78, 2,6-Difluoro-3-(1-methyl-6-(5-oxa-8-azaspiro[3.5]nonan-8-yl)-1H-pyrazolo[4,3-c]pyridin-3-yl)-5-(trifluoromethyl)phenol], the IC50 was less than 0.1 µM.

`Cn1nc(-c2cc(C(F)(F)F)c(F)c(O)c2F)c2cnc(N3CCN(C(=O)CN4CCOCC4)CC3)nc21` [Compound 18.126, 1-(4-(3-(2,4-Difluoro-3-hydroxy-5-(trifluoromethyl)phenyl)-1-methyl-1H-pyrazolo[3,4-d]pyrimidin-6-y1)piperazin-1-yl)-2-morpholinoethan-1-one]: the IC50 lay in the range of 0.1 to 1 µM.

Consider `CC1(NC(=O)c2ccc3oc(-c4cc(C(F)(F)F)c(F)c(O)c4F)nc3c2)CCC1` [Compound 1.23, 2-(2,4-Difluoro-3-hydroxy-5-(trifluoromethyl)phenyl)-N-(1-methylcyclobutyl)benzo[d]oxazole-5-carboxamide], for which the IC50 was less than 0.1 µM.

On to `O=C(NC1CCCC1)c1ccc2oc(-c3cc(O)c(F)c(F)c3)nc2c1` [Compound 1.02, N-Cyclopentyl-2-(3,4-difluoro-5-hydroxyphenyl)benzo[d]oxazole-5-carboxamide], for which the IC50 was less than 0.1 µM.

Consider `Cn1nc(-c2cc(C(F)(F)F)c(F)c(O)c2F)c2cnc(N3[C@@H]4CNC[C@H]3COC4)cc21` [Compound 9.100, 3-(6-(cis-3-Oxa-7,9-diazabicyclo[3.3.1]nonan-9-yl)-1-methyl-1H-pyrazolo[4,3-c]pyridin-3-yl)-2,6-difluoro-5-(trifluoromethyl)phenol], for which the IC50 lay in the range of 0.1 to 1 µM.

Regarding `Cn1nc(-c2cc(C(F)(F)F)c(F)c(O)c2F)c2cnc(N3CCOCCC34CC4)cc21` [Compound 9.70, 2,6-Difluoro-3-(1-methyl-6-(7-oxa-4-azaspiro[2.6]nonan-4-yl)-1H-pyrazolo[4,3-c]pyridin-3-yl)-5-(trifluoromethyl)phenol], the IC50 is less than 0.1 µM.

`Cn1nc(-c2cc(C(F)(F)F)c(F)c(O)c2F)c2cnc(N3CCC4(CCO4)CC3)nc21` [Compound 18.92, 2,6-Difluoro-3-(1-methyl-6-(1-oxa-7-azaspiro[3.5]nonan-7-y1)-1H-pyrazolo[3,4-d]pyrimidin-3-y1)-5-(trifluoromethyl)phenol]: the IC50 is less than 0.1 µM.

As for `CS(=O)(=O)N1CCN(c2ccc3nc(-c4cc(O)c(F)c(C(F)(F)F)c4)oc3c2)CC1` [Compound 6.02, 2-Fluoro-5-(6-(4-(methylsulfonyl)piperazin-1-yl)benzo[d]oxazol-2-yl)-3-(trifluoromethyl)phenol], the IC50 is less than 0.1 µM.

Consider `O=C(NC1CCC1)c1ccc2oc(-c3cc(C(F)(F)F)c(F)c(O)c3F)nc2c1` [Compound 1.14, N-Cyclobutyl-2-(2,4-difluoro-3-hydroxy-5-(trifluoromethyl)phenyl)benzo[d]oxa-zole-5-carboxamide], for which the 50% inhibitory concentration (IC50) is less than 0.1 µM.

With `CN(C(=O)c1ccc2oc(-c3cc(C(F)(F)F)c(F)c(O)c3F)nc2c1)C1CCC1` [Compound 1.15, N-Cyclobutyl-2-(2,4-difluoro-3-hydroxy-5-(trifluoromethyl)phenyl)-N-methylbenzo[d]oxazole-5-carboxamide], the IC50 fell in the range of 0.1 to 1 µM.

With `Cn1nc(-c2cc(C(F)(F)F)c(F)c(O)c2F)c2cnc(N3CCOC4(CCCC4)C3)nc21` [Compound 18.106, 2,6-Difluoro-3-(1-methyl-6-(6-oxa-9-azaspiro[4.5]decan-9-yl)-1H-pyrazolo[3,4-d]pyrimidin-3-y1)-5-(trifluoromethyl)phenol], the IC50 is less than 0.1 µM.

`Cn1nc(-c2cc(C(F)(F)F)c(F)c(O)c2F)c2cnc(N3CC(C)(C#N)C3)nc21` [Compound 9.09, 1-(3-(2,4-Difluoro-3-hydroxy-5-(trifluoromethyl)phenyl)-1-methyl-1H-pyrazolo[3,4-d]pyrimidin-6-yl)-3-methylazetidine-3-carbonitrile]: the IC50 lay in the range of 0.1 to 1 µM.

In the case of `O=C(NC1CCOCC1)c1ccc2oc(-c3cc(O)c(F)c(F)c3)nc2c1` [Compound 1.07, 2-(3,4-Difluoro-5-hydroxyphenyl)-N-(tetrahydro-2H-pyran-4-yl)benzo[d]oxazole-5-carboxamide], the IC50 is 0.1 to 1 µM.

In the case of `CC1COC2(CCC2)CN1c1cc2c(cn1)c(-c1cc(C(F)(F)F)c(F)c(O)c1F)nn2C` (stereo not shown) [Compound 9.95, 2,6-Difluoro-3-(1-methyl-6-(7-methyl-5-oxa-8-azaspiro[3.5]nonan-8-yl)-1H-pyrazolo[4,3-c]pyridin-3-yl)-5-(trifluoromethyl)phenol], the IC50 is less than 0.1 µM.

As to `Cn1nc(-c2cc(C(F)(F)F)c(F)c(O)c2F)c2cnc(N3CCOC(C(N)=O)C3)nc21` (stereo not shown) [Compound 18.07, 4-(3-(2,4-Difluoro-3-hydroxy-5-(trifluoromethyl)phenyl)-1-methyl-1H-pyrazolo[3,4-d]pyrimidin-6-yl)morpholine-2-carboxamide], the IC50 is less than 0.1 µM.

On to `Cc1c(N(C)C2CCOCC2)ncc2c(-c3cc(C(F)(F)F)c(F)c(O)c3F)nn(C)c12` [Compound 9.130, 3-(1,7-Dimethyl-6-(methyl(tetrahydro-2H-pyran-4-yl)amino)-1H-pyrazolo[4,3-c]pyridin-3-yl)-2,6-difluoro-5-(trifluoromethyl)phenol], for which the IC50 lay in the range of 0.1 to 1 µM.

For `Cn1nc(-c2cc(C(F)(F)F)c(F)c(O)c2F)c2cnc(N3CCN(C(=O)NC4CCCCC4)CC3)nc21` [Compound 18.125, N-Cyclohexyl-4-(3-(2,4-difluoro-3-hydroxy-5-(trifluoromethyl)phenyl)-1-methyl-1H-pyrazolo[3,4-d]pyrimidin-6-y1)piperazine-1-carboxamide], the IC50 is less than 0.1 µM.

For `Cn1nc(-c2cc(C(F)(F)F)c(F)c(O)c2F)c2cnc(N3CCN(C(=O)O)C(=O)C3)cc21` [Compound 9.79, 4-(3-(2,4-Difluoro-3-hydroxy-5-(trifluoromethyl)phenyl)-1-methyl-1H-pyrazolo[4,3-c]pyridin-6-yl)-2-oxopiperazine-1-carboxylic acid], the IC50 was in the range of 1 to 30 µM.

Turning to `COCCN(c1cc2c(cn1)c(-c1cc(C(F)(F)F)c(F)c(O)c1F)nn2C)C1CCOCC1` [Compound 9.50, 2,6-Difluoro-3-(6-((2-methoxyethyl)(tetrahydro-2H-pyran-4-yl)amino)-1-methyl-1H-pyrazolo[4,3-c]pyridin-3-yl)-5-(trifluoromethyl)phenol], the IC50 is less than 0.1 µM.

Turning to `CN(c1ccc2c(-c3cc(C(F)(F)F)c(F)c(O)c3F)nn(C)c2n1)C1CCC1` [Compound 9.18, 3-(6-(Cyclobutyl(methyl)amino)-1-methyl-1H-pyrazolo[3,4-b]pyridin-3-yl)-2,6-difluoro-5-(trifluoromethyl)phenol], the IC50 was less than 0.1 µM.

For the compound `Cn1nc(-c2cc(C(F)(F)F)c(F)c(O)c2F)c2cnc(N3CCOC4(CC4)C3)cc21` [Compound 9.48, 2,6-Difluoro-3-(1-methyl-6-(4-oxa-7-azaspiro[2.5]octan-7-yl)-1H-pyrazolo[4,3-c]pyridin-3-yl)-5-(trifluoromethyl)phenol], the IC50 is less than 0.1 µM.

On to `Cn1nc(-c2cc(C(F)(F)F)c(F)c(O)c2F)c2cnc(N3CCOC4(CCS(=O)(=O)CC4)C3)cc21` [Compound 9.88, 4-(3-(2,4-Difluoro-3-hydroxy-5-(trifluoromethyl)phenyl)-1-methyl-1H-pyrazolo[4,3-c]pyridin-6-yl)-1-oxa-9-thia-4-azaspiro[5.5]undecane 9,9-dioxide], for which the IC50 is less than 0.1 µM.

Regarding `CS(=O)(=O)N1CCN(c2cnc3c(-c4cc(O)c(F)c(C(F)(F)F)c4)nn(C4CCCCO4)c3n2)CC1` (stereo not shown) [Compound 10.05, 2-Fluoro-5-(6-(4-(methylsulfonyl)piperazin-1-yl)-1-(tetrahydro-2H-pyran-2-yl)-1H-pyrazolo[3,4-b]pyrazin-3-yl)-3-(trifluoromethyl)phenol], the IC50 was less than 0.1 µM.

Take `Cn1nc(-c2cc(C(F)(F)F)c(F)c(O)c2F)c2cnc(N3CCN(C(=O)Nc4ccccc4)CC3)cc21` [Compound 21.01, 4-(3-(2,4-Difluoro-3-hydroxy-5-(trifluoromethyl)phenyl)-1-methyl-1H-pyrazolo[4,3-c]pyridin-6-y1)-N-phenylpiperazine-1-carboxamide]: the IC50 is less than 0.1 µM.
